This passage reports Viability, IC50 and AC50 results from patent US20240409536A1, “COMPOUNDS AND METHODS FOR MODULATING SPLICING” (REMIX THERAPEUTICS INC., priority 2021, published 2024).

The subject of one data set is K562 cells. In words: Cell Titer Glo 2.0 cell viability assay in K562 cells. The settings on record: 72 hours. Background: In ATP-based viability assays light output follows the ATP content of the culture.
The next data set concerns HiBiT-tagged HTT protein. In words: HiBiT protein abundance assay, HTT (K562 HiBiT knock-in cells). The format is cell-based, human. The settings on record: 24 hours. The procedure, abridged:
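K562 cells with endogenous HiBiT knock-in tag, 10-point 3-fold dilutions (top 10 μM final, ≤0.25% DMSO), 24 h at 37 °C. Lytic Nano-Glo HiBiT luminescence, normalized to DMSO and unmodified K562 baselines; IC50 is concentration giving 50% protein abundance from four-parameter fit.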

In another data set the test system is HTT mRNA. The data set can be described thus: Splicing RT-qPCR assay, HTT canonical (CJ) and alternative (AJ) junction mRNA. Type of data set: cell-based. The settings on record: Homo sapiens, A673 or K562 cells, 24 hours; for IC50: decrease in canonical junction mRNA; for AC50: increase in alternative junction mRNA. The procedure, abridged: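 A673 or K562 cells were treated 24 h at 37 °C with compounds in an 11-point 3-fold dilution series (top final 10 uM, DMSO ≤0.25%). Lysates were analysed by one-step RT-qPCR for canonical (CJ) and alternative-exon (AJ) junction isoforms, normalized to GAPDH, GUSB or PPIA.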
In general terms: Real-time PCR tracks product formation cycle by cycle.

The subject of the next data set is Target C. In words: HiBiT protein abundance assay, Target C (K562 HiBiT knock-in cells). Type of data set: cell-based, human. The settings on record: 24 hours. The procedure, abridged:
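K562 knock-in cells (10000/well, IMDM+1% FBS) treated 24 h at 37 °C with 10-point 3-fold dilutions, top final 10 μM, DMSO ≤0.25%. HiBiT lytic luminescence read; response normalized to unmodified K562 and DMSO-treated controls. IC50 interpolated at 50% abundance by four-parameter logistic fit.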

SMILES strings stand for the structures. Structures can show the parent of a compound that is named as a salt. Bounds are passed on as bounds.

As to `CNCC1CCN(c2ccc(C(=O)Nc3cc(F)c4nc(C)cn4c3)c3nccnc23)CC1` [Compound 192, N-{8-fluoro-2-methylimidazo[1,2-a]pyridin-6-yl}-8-{4-[(methylamino)methyl]piperidin-1-yl}quinoxaline-5-carboxamide trifluoroacetate], the Viability result in the data set on K562 cells was “C (C represents 1000-9999 nM)”. Besides, the IC50 in the data set with HiBiT-tagged HTT protein, in the data set with HTT mRNA and in the data set with Target C was 1000 to 10000 nM throughout. Also, in the data set with HTT mRNA, the AC50 (in general, the concentration at which the activity in the assay is half-maximal) lay within 1000 to 10000 nM.
`CNC1CCN(c2ccc(C(=O)Nc3cc(F)c4nc(C)cn4c3)c3nc(C)ccc23)C1` (stereo not shown) [Compound 196, N-{8-fluoro-2-methylimidazo[1,2-a]pyridin-6-yl}-2-methyl-5-[3-(methylamino)pyrrolidin-1-yl]quinoline-8-carboxamide 2,2,2-trifluoroacetate]: the Viability entry in the data set with K562 cells is reported as “A (A represents <100 nM)”. Moreover, the concentration for half-maximal inhibition (IC50) in the data set with HiBiT-tagged HTT protein, in the data set on HTT mRNA and in the data set with Target C was 1000 to 10000 nM each time. Moreover, the AC50 in the data set on HTT mRNA lay within 1000 to 10000 nM.
In the case of `Cc1cnc2c(N3CCNCC3)ccc(C(=O)Nc3cc(F)c4nc(C)cn4c3)c2n1` [Compound 197, N-{8-fluoro-2-methylimidazo[1,2-a]pyridin-6-yl}-3-methyl-8-(piperazin-1-yl)quinoxaline-5-carboxamide; trifluoroacetic acid], the Viability entry with K562 cells is reported as “C (C represents 1000-9999 nM)”. Also, the IC50 (commonly the point on the concentration scale where inhibition reaches its midpoint) with HiBiT-tagged HTT protein lay within 100 to 1000 nM; in the data set on HTT mRNA, 1000 to 10000 nM; with Target C it was 1000 to 10000 nM. Moreover, in the data set on HTT mRNA, the AC50 fell in the range of 1000 to 10000 nM.
Turning to `COCCOc1cc2c(N3CCNCC3)ccc(C(=O)Nc3cc(F)c4nc(C)cn4c3)c2nn1` [Compound 199, N-{8-fluoro-2-methylimidazo[1,2-a]pyridin-6-yl}-3-(2-methoxyethoxy)-5-(piperazin-1-yl)cinnoline-8-carboxamide], the Viability entry in the data set on K562 cells is “B (B represents 100-1000 nM)”. In addition, the values for the IC50 in the data set with HiBiT-tagged HTT protein, in the data set on HTT mRNA and in the data set with Target C were 1000 to 10000 nM, above 10000 nM and 1000 to 10000 nM, respectively. Moreover, in the data set on HTT mRNA, the AC50 is above 10000 nM.
Turning to `Cc1cnc2c(N3CCC(N(C)C)CC3)ccc(C(=O)Nc3cc(F)c4nc(C)cn4c3)c2n1` [Compound 200, 8-[4-(dimethylamino)piperidin-1-yl]-N-{8-fluoro-2-methylimidazo[1,2-a]pyridin-6-yl}-3-methylquinoxaline-5-carboxamide], the Viability entry in the data set on K562 cells is listed as “B (B represents 100-1000 nM)”. The results for the IC50 with HiBiT-tagged HTT protein, in the data set on HTT mRNA and in the data set on Target C were below 100 nM, 100 to 1000 nM and 100 to 1000 nM, respectively. This compound gave an AC50 in the data set with HTT mRNA of 100 to 1000 nM.
On to `CNC1CCN(c2ccc(C(=O)Nc3cc(F)c4nc(C)cn4c3)c3nc(OC)cnc23)C1` (stereo not shown) [Compound 202, N-{8-fluoro-2-methylimidazo[1,2-a]pyridin-6-yl}-3-methoxy-8-[3-(methylamino)pyrrolidin-1-yl]quinoxaline-5-carboxamide; bis(trifluoroacetic acid)], for which the Viability result with K562 cells is listed as “A (A represents <100 nM)”. For the same compound, the IC50 in the data set on HiBiT-tagged HTT protein was 1000 to 10000 nM; in the data set with HTT mRNA, above 10000 nM; in the data set with Target C it was 1000 to 10000 nM. The AC50 in the data set with HTT mRNA is above 10000 nM.
For the compound `CN[C@@H]1CCN(c2ccc(C(=O)Nc3cc(F)c4nc(C)cn4c3)c3nc(OC)cnc23)C1` [Compound 204, (R)—N-{8-fluoro-2-methylimidazo[1,2-a]pyridin-6-yl}-3-methoxy-8-[3-(methylamino)pyrrolidin-1-yl]quinoxaline-5-carboxamide; trifluoroacetic acid], the Viability result with K562 cells is listed as “A (A represents <100 nM)”. Besides, the IC50 with HiBiT-tagged HTT protein was 1000 to 10000 nM; in the data set on HTT mRNA, above 10000 nM; with Target C, 1000 to 10000 nM. The AC50 in the data set on HTT mRNA is above 10000 nM.
With `COc1cnc2c(N3C[C@@H](C)N[C@@H](C)C3)ccc(C(=O)Nc3cc(F)c4nc(C)cn4c3)c2n1` [Compound 205, 8-[(3R,5S)-3,5-dimethylpiperazin-1-yl]-N-{8-fluoro-2-methylimidazo[1,2-a]pyridin-6-yl}-3-methoxyquinoxaline-5-carboxamide; trifluoroacetic acid], the Viability entry in the data set with K562 cells is given as “B (B represents 100-1000 nM)”. For the same compound, the IC50 with HiBiT-tagged HTT protein, in the data set on HTT mRNA and in the data set on Target C was 100 to 1000 nM throughout. This compound displayed an AC50 with HTT mRNA of 100 to 1000 nM.
For the compound `COc1cnc2c(N3CCC(N(C)C)CC3)ccc(C(=O)Nc3cc(F)c4nc(C)cn4c3)c2n1` [Compound 206, 8-[4-(dimethylamino)piperidin-1-yl]-N-{8-fluoro-2-methylimidazo[1,2-a]pyridin-6-yl}-3-methoxyquinoxaline-5-carboxamide; trifluoroacetic acid], in the data set with K562 cells, the Viability result was “B (B represents 100-1000 nM)”. Also, the IC50 in the data set on HiBiT-tagged HTT protein, in the data set on HTT mRNA and with Target C was 100 to 1000 nM throughout. This compound had an AC50 in the data set with HTT mRNA of 100 to 1000 nM.
As to `COc1cnc2c(N3CCNCC3)ccc(C(=O)Nc3cc(F)c4nc(C)cn4c3)c2n1` [Compound 207, N-{8-fluoro-2-methylimidazo[1,2-a]pyridin-6-yl}-3-methoxy-8-(piperazin-1-yl)quinoxaline-5-carboxamide; bis(trifluoroacetic acid)], in the data set with K562 cells, the Viability entry is recorded as “B (B represents 100-1000 nM)”. Further, the IC50 in the data set on HiBiT-tagged HTT protein was in the range of 100 to 1000 nM; in the data set on HTT mRNA, 100 to 1000 nM; in the data set with Target C, 1000 to 10000 nM. Besides, the AC50 in the data set with HTT mRNA was in the range of 1000 to 10000 nM.
For the compound `Cc1cnc2c(C(=O)Nc3cc(F)c4nc(C)cn4c3)ccc(N3CCC(N(C)C)CC3)c2n1` [Compound 208, 8-[4-(dimethylamino)piperidin-1-yl]-N-{8-fluoro-2-methylimidazo[1,2-a]pyridin-6-yl}-2-methylquinoxaline-5-carboxamide; bis(trifluoroacetic acid)], in the data set on K562 cells, the Viability result is reported as “A (A represents <100 nM)”. Further, the 50% inhibitory concentration (IC50) in the data set with HiBiT-tagged HTT protein, in the data set on HTT mRNA and in the data set on Target C was 1000 to 10000 nM throughout. Moreover, the AC50 in the data set with HTT mRNA lay in the range of 1000 to 10000 nM.
In the case of `Cc1ccc2c(N3C[C@@H](C)N[C@@H](C)C3)ccc(C(=O)Nc3cc(F)c4nc(C)cn4c3)c2n1` [Compound 214, 5-[(3R,5S)-3,5-dimethylpiperazin-1-yl]-N-{8-fluoro-2-methylimidazo[1,2-a]pyridin-6-yl}-2-methylquinoline-8-carboxamide], the Viability entry in the data set with K562 cells is reported as “B (B represents 100-1000 nM)”. The IC50 in the data set with HiBiT-tagged HTT protein lay in the range of 1000 to 10000 nM; in the data set on HTT mRNA it was 100 to 1000 nM; in the data set on Target C, 1000 to 10000 nM. In addition, the concentration at half-maximal activity (AC50) in the data set on HTT mRNA fell in the range of 1000 to 10000 nM.
In the case of `Cc1ccc2c(N3CCC(N(C)C)CC3)ccc(C(=O)Nc3cc(F)c4nc(C)cn4c3)c2n1` [Compound 215, 5-[4-(dimethylamino)piperidin-1-yl]-N-{8-fluoro-2-methylimidazo[1,2-a]pyridin-6-yl}-2-methylquinoline-8-carboxamide], the Viability entry in the data set on K562 cells was “B (B represents 100-1000 nM)”. For the same compound, the IC50 in the data set with HiBiT-tagged HTT protein fell in the range of 1000 to 10000 nM; with HTT mRNA, 100 to 1000 nM; in the data set on Target C, 1000 to 10000 nM. The compound further yielded an AC50 in the data set on HTT mRNA of 1000 to 10000 nM.
Take `Cc1cnc2c(N3C[C@@H](C)N[C@@H](C)C3)ccc(C(=O)Nc3cc(F)c4nc(C)cn4c3)c2n1` [Compound 216, 8-((3R,5S)-3,5-dimethylpiperazin-1-yl)-N-{8-fluoro-2-methylimidazo[1,2-a]pyridin-6-yl}-3-methylquinoxaline-5-carboxamide]: the Viability result in the data set with K562 cells is “C (C represents 1000-9999 nM)”. Besides, the 50% inhibitory concentration (IC50) in the data set with HiBiT-tagged HTT protein, in the data set with HTT mRNA and in the data set on Target C was 1000 to 10000 nM each time. In the data set on HTT mRNA, this compound returned an AC50 above 10000 nM.
